Results reported in patent publication US9623014B2 (Entasis Therapeutics Limited, priority 2012, dated 2017).
Values after ≈ are worked out from the molar mass of the structure shown. Structures can show the parent of a compound that is named as a salt.

Legend:
[1] = tested on: Pseudomonas aeruginosa AmpC (second AmpC column); experiment: MIC alone against β-lactamase producing strain; assay type: cell-based; conditions: substance alone, column 4
Description: (§1) Minimum Inhibitory Concentrations (MICs) were determined by the broth microdilution method in accordance with the Clinical and Laboratory Standards Institute (CLSI) guidelines. Clinical Laboratory Standards Institute: Methods for Dilution Antimicrobial Susceptability Tests for Bacteria That Grow Aerobically (8th Ed. (2009)) M07-A8. In brief, organism suspensions were adjusted to a 0.5 McFarland standard and further diluted to yield a final inoculum between 3×10^5 and 7×10^5 colony-forming units (CFU)/mL. Bacterial inocula were made in sterile, cation adjusted Mueller-Hinton Broth (Beckton Dickinson) for either Escherichia coli, Klebsiella pneumoniae, or Pseudomonas aeruginosa. Haemophilus influenzae bacterial inocula were made in sterile, cation adjusted Mueller-Hinton Broth (Beckton Dickinson) containing 0.5% yeast extract (Beckton Dickinson) plus 15 μg/ml Bovine Hematin (Sigma) and 15 μg/ml β-nicotinamide adenine dinucleotide (Sigma). Bacterial inocula were made in sterile, cation adjusted Mueller-Hinton Broth (Beckton Dickinson) for Staphylococcus aureus or sterile, cation adjusted Mueller-Hinton Broth containing 2.5% lysed horse blood (Hema Resource & Supply Inc.) for Streptococcus pneumoniae and Streptococcus pyogenes. An inoculum volume of 100 uL was added to wells (using a Tecan EVO robot) containing 2 uL of DMSO containing 2-fold serial dilutions of drug. […] All inoculated microdilution trays were incubated in ambient air at 35° C. for 18-24 hours. Following incubation, the lowest concentration of the drug that prevented visible growth as read at OD600 nm was recorded as the MIC. Performance of the assay was monitored by the use of laboratory quality-control strains and commercially available control compounds with defined MIC spectrums, in accordance with CLSI guidelines.

[2] = tested on: Klebsiella pneumoniae KPC2; experiment: MIC alone against β-lactamase producing strain; assay type: cell-based; conditions: Klebsiella pneumoniae, KPC2; substance alone
Description: as §1

[3] = tested on: Pseudomonas aeruginosa PER-1, OXA-10; experiment: MIC alone against β-lactamase producing strain; assay type: cell-based; conditions: Pseudomonas aeruginosa; substance alone
Description: as §1

[4] = tested on: Pseudomonas aeruginosa AmpC (first AmpC column); experiment: MIC alone against β-lactamase producing strain; assay type: cell-based; conditions: substance alone, column 2
Description: as §1

[5] = tested on: Klebsiella pneumoniae KPC2; experiment: Synergy with β-lactams (MIC of β-lactam at fixed inhibitor concentration); assay type: cell-based; conditions: MIC of ceftazidime + inhibitor at fixed 4 ug/ml
Description: Synergy with β-lactams was assessed against several organisms producing a variety of β-lactamases belonging to different classes. Bush & Jacoby, Updated Functional Classification of β-Lactamases, Antimicrobial Agents and Chemotherapy, 54:969-76 (2010). In the assays, growth inhibitory activity (MIC) was measured using either two-fold dilutions of the partner β-lactam at a fixed concentration of compounds of formula (I). Compounds were prepared in DMSO, and MIC determinations using the compound of formula (I)/β-lactam combinations were done according to the CLSI guidelines. Clinical Laboratory Standards Institute: Methods for Dilution Antimicrobial Susceptability Tests for Bacteria That Grow Aerobically (8th Ed. (2009)) M07-A8. Synergy was defined as a four-fold or more reduction in the MIC of the β-lactam in the presence of the compound of formula (I), compared to the β-lactam alone.

S. aureus (MSSA) = experiment: MIC, broth microdilution (CLSI); assay type: cell-based, Staphylococcus aureus; conditions: Staphylococcus aureus, MSSA; compound alone
Description: as §1

S. aureus (MRSA) = experiment: MIC, broth microdilution (CLSI); assay type: cell-based, Staphylococcus aureus; conditions: Staphylococcus aureus, MRSA; compound alone
Description: as §1

Pseudomonas aeruginosa = experiment: MIC, broth microdilution (CLSI); assay type: cell-based; conditions: Pseudomonas aeruginosa; compound alone; read-out: MIC P. aeruginosa
Description: as §1

Klebsiella pneumoniae = experiment: MIC, broth microdilution (CLSI); assay type: cell-based; conditions: Klebsiella pneumoniae; compound alone; read-out: MIC K. pneumon.
Description: as §1

Streptococcus pneumoniae = experiment: MIC, broth microdilution (CLSI); assay type: cell-based; conditions: Streptococcus pneumoniae; compound alone; read-out: MIC S. pneumon.
Description: as §1

Escherichia coli = experiment: MIC, broth microdilution (CLSI); assay type: cell-based; conditions: Escherichia coli; compound alone
Description: as §1

Streptococcus pyogenes = experiment: MIC, broth microdilution (CLSI); assay type: cell-based; conditions: Streptococcus pyogenes; compound alone; read-out: MIC S. pyogenes
Description: as §1

Haemophilus influenzae = experiment: MIC, broth microdilution (CLSI); assay type: cell-based; conditions: Haemophilus influenzae; compound alone; read-out: MIC H. influenzae
Description: as §1

| SMILES | MIC [1] [µg/mL] | MIC [2] [µg/mL] | MIC [3] [µg/mL] | MIC [4] [µg/mL] | MIC Klebsiella pneumoniae KPC2 [5] [µM] | MIC (S. aureus (MSSA)) [µg/mL] | MIC (S. aureus (MRSA)) [µg/mL] | MIC (Pseudomonas aeruginosa) [µg/mL] | MIC (Klebsiella pneumoniae) [µg/mL] | MIC (Streptococcus pneumoniae) [µg/mL] | MIC (Escherichia coli) [µg/mL] | MIC (Streptococcus pyogenes) [µg/mL] | MIC (Haemophilus influenzae) [µg/mL] |
| --- | --- | --- | --- | --- | --- | --- | --- | --- | --- | --- | --- | --- | --- |
| CC(C)(O/N=C(\C(=O)N[C@@H]1C(=O)N2C(C(=O)[O-])=C(C[n+]3ccccc3)CS[C@H]12)c1csc(N)n1)C(=O)O [Ceftazidime, ceftazidime, reference compound] | 32 (≈ 58.5 µM) | 256 (≈ 468 µM) | 256 (≈ 468 µM) | 128 (≈ 234 µM) | – | – | – | – | – | – | – | – | – |
| CC(=O)NCCC1=C[C@@H](C(N)=O)N2C[C@@H]1N(OS(=O)(=O)[O-])C2=O.[Na+] [Ex. 25, (2S,5R)-4-(2-acetamidoethyl)-2-carbamol-7-oxo-1,6-diazabicyclo[3.2.1]oct-3-en-6-yl sulfate sodium salt] | – | – | – | – | >8 | – | – | – | – | – | – | – | – |
| CC1=C[C@@H](C(N)=O)N2C[C@@H]1N(OS(=O)(=O)O)C2=O.[Na] [Example 1, (2S,5R)-2-carbamoyl-4-methyl-7-oxo-1,6-diazabicyclo[3.2.1]oct-3-en-6-yl hydrogen sulfate sodium salt] | > 64 | 8 | > 64 | 64 | – | 25 | > 200 | 200 | 50 | 6.25 | 50 | 3.13 | – |
| CC1=C[C@@H](C#N)N2C[C@@H]1N(OS(=O)(=O)O)C2=O.[Na] [Example 2, (2S,5R)-2-cyano-4-methyl-7-oxo-1,6-diazabicyclo[3.2.1]oct-3-en-6-yl hydrogen sulfate sodium salt] | > 64 | 64 | > 64 | > 64 | – | 100 | 100 | > 200 | 100 | 25 | 100 | 3.13 | 12.5 |
| CC1=C[C@@H](C(=O)NC2CCNCC2)N2C[C@@H]1N(OS(=O)(=O)O)C2=O [Example 3, (2S,5R)-4-methyl-7-oxo-2-(piperidinium-4-ylcarbamoyl)-1,6-diazabicyclo[3.2.1]oct-3-en-6-yl sulfate] | – | – | – | – | – | > 200 | > 200 | > 200 | > 200 | 50 | > 200 | 50 | 3.13 |
| CC(C)C1=C[C@@H](C(N)=O)N2C[C@@H]1N(OS(=O)(=O)O)C2=O.[Na] [Example 4, (2S,5R)-2-carbamoyl-4-isopropyl-7-oxo-1,6-diazabicyclo[3.2.1]oct-3-en-6-yl hydrogen sulfate sodium salt] | > 64 | > 64 | > 64 | > 64 | – | – | > 200 | > 200 | > 200 | 200 | > 200 | 50 | > 200 |
| CC(C)C1=C[C@@H](C#N)N2C[C@@H]1N(OS(=O)(=O)O)C2=O.[Na] [Example 5, (2S,5R)-2-cyano-4-isopropyl-7-oxo-1,6-diazabicyclo[3.2.1]oct-3-en-6-yl hydrogen sulfate sodium salt] | – | – | – | – | – | > 200 | > 200 | > 200 | > 200 | 100 | > 200 | 50 | 100 |
| CC1=C[C@@H](C(=O)NCCN)N2C[C@@H]1N(OS(=O)(=O)O)C2=O [Example 6, (2S,5R)-2-(2-aminoethylcarbamoyl)-4-methyl-7-oxo-1,6-diazabicyclo[3.2.1]oct-3-en-6-yl hydrogen sulfate] | 16 | 0.25 | 16 | 16 | – | 200 | > 200 | 25 | > 200 | 25 | > 200 | 25 | > 200 |
| C=C(C)C1=C[C@@H](COC)N2C[C@@H]1N(OS(=O)(=O)O)C2=O.[Na] [Example 7, (2S,5R)-2-(methoxymethyl)-7-oxo-4-(prop-1-en-2-yl)-1,6-diazabicyclo[3.2.1]oct-3-en-6-yl hydrogen sulfate sodium salt] | – | – | – | – | – | > 200 | > 200 | > 200 | > 200 | > 200 | > 200 | > 200 | > 200 |
| CC1=C[C@@H](C(=O)NCc2cc(=O)c(O)c[nH]2)N2C[C@@H]1N(OS(=O)(=O)O)C2=O [Example 8, (2S,5R)-2-((5-hydroxy-4-oxo-1,4-dihydropyridin-2-yl)methylcarbamoyl)-4-methyl-7-oxo-1,6-diazabicyclo[3.2.1]oct-3-en-6-yl hydrogen sulfate sodium salt] | > 16 | > 16 | > 16 | > 16 | – | – | – | – | – | – | – | – | – |
| COCC1=C[C@@H](C(N)=O)N2C[C@@H]1N(OS(=O)(=O)[O-])C2=O.[Na+] [Example 9, (2S,5R)-2-carbamoyl-4-(methoxymethyl)-7-oxo-1,6-diazabicyclo[3.2.1]oct-3-en-6-yl hydrogen sulfate sodium salt] | > 16 | > 16 | > 16 | > 16 | – | – | – | – | – | – | – | – | – |
| COC[C@@H]1C=C(C(N)=O)[C@@H]2CN1C(=O)N2OS(=O)(=O)O [Example 12, (2S,5R)-4-carbamoyl-2-(methoxymethyl)-7-oxo-1,6-diazabicyclo[3.2.1]oct-3-en-6-yl hydrogen sulfate, monosodium salt] | > 64 | 64 | > 64 | > 64 | – | – | > 200 | > 200 | 50 | 25 | 100 | 25 | 100 |
| COCC1=C[C@@H](COC)N2C[C@@H]1N(OS(=O)(=O)[O-])C2=O.[Na+] [Example 13, (2S,5R)-2,4-bis(methoxymethyl)-7-oxo-1,6-diazabicyclo[3.2.1]oct-3-en-6-yl sulfate Sodium salt] | > 16 | > 16 | > 16 | > 16 | – | > 200 | > 200 | > 200 | > 200 | 50 | > 200 | 100 | 200 |
| CC(C)(C)OC(=O)N1CCC(NC(=O)[C@@H]2C=C[C@@H]3CN2C(=O)N3OS(=O)(=O)O)CC1 [Example 14, (2S,5R)-2-(1-(tert-butoxycarbonyl)piperidin-4-ylcarbamoyl)-7-oxo-1,6-diazabicyclo[3.2.1]oct-3-en-6-yl sulfate sodium salt] | – | – | – | – | – | 100 | > 200 | > 200 | > 200 | 100 | > 200 | 100 | 12.5 |
| CC1=C[C@@H](CO)N2C[C@@H]1N(OS(=O)(=O)[O-])C2=O.[Na+] [Example 16, (2S,5R)-2-(hydroxymethyl)-4-methyl-7-oxo-1,6-diazabicyclo[3.2.1]oct-3-en-6-yl hydrogen sulfate Sodium Salt] | > 16 | 8 | > 16 | > 16 | – | 100 | > 200 | > 200 | 100 | 50 | 100 | 50 | 50 |
